# “Also recorded” adds a separate entry of the source.
# Key:
# [1] = target: T1, protein-protein interactions (PPI) between CD163-SRCR5 domain and PRRSV GP2a protein (Sus scrofa, UniProt Q2VL90); assay: BiFC assay between SRCR5-VN and GP2a-VC proteins; type: cell-based, porcine CD163; PRRSV; details: HEK293T cells; compounds at 5 μM; 24 h; DMSO as Ctrl
# T1 construct: The amplified cDNA fragments of SRCR2 or SRCR5 were subcloned into the pBiFC-VN155(I152L) vector; Myc tag (from vector backbone pMyc-CMV); expressed in transfected cells; host or cells: HEK293T
# T1 sequence (Q2VL90 477-577): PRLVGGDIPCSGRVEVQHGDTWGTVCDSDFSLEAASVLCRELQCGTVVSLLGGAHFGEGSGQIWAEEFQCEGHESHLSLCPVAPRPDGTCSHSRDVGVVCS
# Source text: The N-terminus and C-terminus of the truncated Venus-I152L were inserted into vector backbone pMyc-CMV and pCMV-HA, constituting commercial plasmids pBiFC-VN155(I152L) and pBiFC-VC155, respectively (Addgene, Watertown, MA, USA). See Kodama and Hu, Biotechniques 49:793-805 (2010). cDNA fragments for the scavenger receptor cysteine-rich domain 2 (SRCR2) and SRCR5 of porcine CD163 receptor, and for PRRSV glycoproteins GP2a and GP4 were amplified by RT-PCR. The amplified cDNA fragments of SRCR2 or SRCR5 were subcloned into the pBiFC-VN155(I152L) vector digested with EcoRI/BglII. For constructions of GP2a and GP4 fusion proteins, cDNA fragments encoding GP2a or GP4 were subcloned into the pBiFC-VC155 vector digested with EcoRI/BglII. All plasmid clones were verified by DNA Sanger sequencing.
# HEK293T cells cultured in 12-well plates were transfected with appropriate plasmids for each BiFC assay using FuGENE® 6 (Promega, Madison, WI, USA). After 5 h, various concentrations of chemical compounds were added to the culture media. DMSO was used as the vehicle control. Fluorescence images of treated cells at 24 h after plasmid transfection were captured using an inverted Nikon fluorescence microscope. Fluorescence intensity of treated cells was measured by ImageJ.
# Using the previously described BiFC vector based on the fragmented venus protein (VN-155[I152L], hereafter named VN) and (VC-155, hereafter named VC), fusion protein constructs were established between the porcine CD163 protein SRCR5 or SRCR2 domain and VN, and between the PRRSV minor glycoproteins (GP2a or GP4) and VC (FIG. 1A, 2). See Kodama et al., Biotechniques 49(5): 793-805 (2010). These plasmids were co-expressed in HEK293T cells to evaluate the PPIs between the SRCR5 domain and GP2a or GP4.
# The BiFC assays was tested to determine whether it could identify small molecules with potential to block the protein-protein interactions between CD163 and PRRSV. A customized virtual screen of a library of commercially available small molecules was performed with the AtomNet® model at a region centered around R561 (FIG. 3) based on the available 3-D protein structure of porcine CD163-SRCR5 domain, and 74 compounds predicted to target this potential binding site were procured. Ma et al., J. Virol. 91(3): e01897-16 (2017). These compounds were tested using the BiFC assay, to evaluate their ability to inhibit the PPI between GP2a and SRCR5. Plasmids were co-transfected in HEK293T cells, 4 h later, compounds were individually administered to cells at 5 μM. Twenty-four hours later, images were taken under a fluorescence microscope and the fluorescence quantified. […] Until these studies, there has been no known biological activity reported for compound B7.
# [2] = test system: PRRSV strain VR-2332; assay: qRT-PCR for PRRSV RNA in infected PAMs; type: cell-based
# Procedure: (§1) Total RNA was extracted from PAMs infected with PRRSV using RNeasy Mini Kit (Qiagen, Germantown, MD) according to the manufacturer's instruction. RNA concentrations were measured using a Nanodrop spectrophotometer (Thermo Fisher Scientific). GAPDH was used as a housekeeping gene for gene expression normalization. Data were processed with the software associated with ABI 7500.
# (§2) For PRRSV infection of PAM cells, PAMs were seeded one day prior to infection. […] Cells were inoculated with VR-2332, SDSU73, NADC30 or Lelystad PRRSV at MOI=0.1 for 1 h. The 24 h cell medium supernatant was stored at −80° C. until use.
# [3] = test system: PRRSV strain VR-2332; assay: PRRSV titration assay of culture media of infected PAMs; type: cell-based; details: for log reduction of viral titer: pre- and post-inoculation treatment
# Procedure: as §2
# (§3) For PRRSV titration assay, MARC145 cells were seeded in 48-well plates and grew to ˜80% density before inoculation. Viral supernatants were prepared by 10-fold serial dilution, and 100 μl of the dilutions was added per well in six replicates. Inocula were removed from cells after 2 h and replaced with 0.5 mL of DMEM supplemented with 2% FBS, 2 mM glutamine, 0.1 mM MEM non-essential amino acids, 50 U/mL penicillin, and 50 μg/mL streptomycin (Invitrogen). Cells were cultured at 37° C. for 6 days and any cytopathic effects were observed and recorded. The PRRSV titer was calculated using the Reed and Muench method and expressed as median tissue culture infectious dose (TCID50/mL). Reed and Muench, Am. J. Epidemiol. 27(3): 493-497 (1938).
# [4] = test system: PRRSV strains VR-2332, SDSU73, NADC30 (Type II), or Lelystad (Type I); assay: qRT-PCR for PRRSV RNA in PAMs infected by different strains; type: cell-based; details: 15 μM; 4 h pre-treatment, 24 h post
# Procedure: as §1
# (§4) For PRRSV infection of PAM cells, PAMs were seeded one day prior to infection. Control cells were treated with DMSO and test cells were treated with the selected screening compounds (5-20 μM) for 4 h before inoculation, during the 1 h PRRSV inoculation, and for 24 h after inoculation. Cells were inoculated with VR-2332, SDSU73, NADC30 or Lelystad PRRSV at MOI=0.1 for 1 h. The 24 h cell medium supernatant was stored at −80° C. until use.
# The inhibitory effect of B7 was further tested on multiple strains of PRRSV. […] This inhibitory effect is further confirmed by viral titration results for the culture media of infected PAMs, with 2.8-3.1 log reduction of viral titers across the 3 Type II PRRSV strains and 2.2 log reduction of viral titer for the type I strain (Lelystad) by 15 μM B7 treatment (FIG. 5D). Thus, compound B7 indeed inhibits the PRRSV infection of PAMs. […]
# [5] = test system: 3 Type II PRRSV strains (VR-2332, SDSU73, NADC30); assay: PRRSV titration assay, Type II strains; type: cell-based; details: 15 μM; PAMs; 24 h
# Procedure: as §4, §3
# (§5) The inhibitory effect of B7 was further tested on multiple strains of PRRSV. […]
# [6] = test system: type I strain (Lelystad); assay: PRRSV titration assay, type I strain; type: cell-based; details: 15 μM; PAMs; 24 h
# Procedure: as §4, §3, §5
compound,measurement,setting,value
"Cc1cc(F)ccc1S(=O)(=O)Nc1nc2ccccc2nc1Nc1cccc(S(=O)(=O)N2CCOCC2)c1 [Compound B7, 4-fluoro-2-methyl-N-[3-(3-morpholin-4-ylsulfonylanilino)quinoxalin-2-yl]benzenesulfonamide]",inhibition of PPI between GP2a and SRCR5 (venus fluorescence in BiFC assay),[1],significantly inhibited the reconstitution of venus fluorescence; also recorded: positive inhibitory effect; also recorded: significantly inhibits the interaction
same,"inhibition of PRRSV infection of PAMs (qRT-PCR, viral RNA)","[2]; 0, 5, 10, 15, 20 μM, 4 h pre-treatment, 1 h inoculation MOI=0.1, 24 h after inoculation",dose-dependent inhibition; also recorded: inhibits PRRSV infection of porcine alveolar macrophages (PAMs)
same,"inhibitory effect on PRRSV infection (qRT-PCR), pre-treatment alone","[2]; 15 μM, 4 h pre-treatment only, no post-treatment, VR-2332",minimal impact
same,log reduction of viral titer,"[3]; 10 μM, 24 h",1.7 log
same,"log reduction of PRRSV titer, post-inoculation treatment alone","[3]; 15 μM, 24 h",2.8 log
same,log reduction of viral titer,"[3]; 15 μM, 24 h",2.9 log
same,inhibition of PRRSV infection of PAMs (titration of culture media),"[3]; 10-20 μM B7, 24 h",inhibited PRRSV infection of PAMs effectively
same,"viral RNA detected in infected PAMs (qRT-PCR), all PRRSV strains",[4],significantly decreased the viral RNA; also recorded: significantly inhibited the infection
same,log reduction of viral titers across the 3 Type II PRRSV strains,[5],2.8-3.1 log
same,log reduction of viral titer for the type I strain (Lelystad),[6],2.2 log

# — US12569495B2, “Inhibitors of porcine reproductive and respiratory syndrome virus” (UNIVERSITY OF CONNECTICUT, priority 2020, dated 2026)
